Consider four substances from US7563862B2, “Neural regeneration peptides and methods for their use in treatment of brain damage” (Neuren Pharmaceuticals Limited, priority 2001, dated 2009).

Test [1] concerns cerebellar microexplants. Particulars: AT2 receptor agonist, 96 hours after start of cultivation (Cote et al., 1999); cited from earlier work.
Test [2] deals with mouse neural stem cells. The test can be described thus: haptotactic migration assay, mouse neural stem cells. The test is classed as cell-based. As for the experimental part: (§1) NRPs were tested for migration-inducing/chemoattractive activity on mouse neural stem cells, EGF-dependent immortalized mouse neural stem cell line MEB5 and wild-type PC-12 cells in a haptotactic migration assay as described below.
(§2) Initial NRP Coating. Control wells of Transwell plates (Coming) with 12 μm pore size were coated in 1.5 ml of the BSA/PBS vehicle. Remaining plates were coated using various concentrations of NRPs ranging between 1-100 ng/ml (prepared in PBS containing 10 ug/ml BSA). The plates were then incubated at 37° C. for 1 hr to coat. Wells were then rinsed 2× with 1 ml sterile PBS.
(§3) Laminin ([…]) for MEB-5 cells, PDL (50 μg/ml)+Matrigel for mouse primary stem cells and fibronectin (25 ug/ml)+matrigel for PC-12 cells were used as extracellular matrix (ECM) coating for the cells. All ECM compounds were diluted in PBS. 1.5 ml of the ECM per well was incubated for 2 hrs at room temperature. The wells were then rinsed once with Iml serum-free media (e.g. NB/B27) followed by 1 ml PBS wash.
A 5 ug/mL PDL/PLL mixture (in PBS) was used to coat inserts. Subsequently the inserts were rinsed with MilliQ water.
Transferring to Media and Cell Seeding: Appropriate medium (MEB-5 cells: DMEM-high glucose+N2 (growth medium supplement from Invitrogen)+10 ng/biotin+2 mM L-glutamine, primary stem cells: NSA-medium from Euroclone and for PC-12 cells: NB/B27 medium) was transferred into the 12-well plates. […] Plates were fixed at 1-2 days in vitro (DIV).
Fixation: Inserts were discarded and wells fixed in successive dilutions of PFA (0.4, 1.2, 3 and 4%) for 3-5min in each dilution. […] The wells were rinsed and stored in PBS until counting.
A haptotactic migration assay was performed according to the description of Example 10 using rat NRP-9SD (SEQ ID NO:34) (4 nM) and mouse NRP-7SW (SEQ ID NO:24) (0.4 nM) as attractants in a Boyden chamber

In test [3] the test system is wild-type PC-12 cells. The test can be described thus: haptotactic migration assay, PC-12 cells. As to conditions: 50 ng/ml coating, 200,000 cells. The test is classed as cell-based. As for the experimental part: as §1, §2, §3
(§4) A 5 ug/mL PDL/PLL mixture (in PBS) was used to coat inserts. Subsequently the inserts were rinsed with MilliQ water. […]

The test system of test [4] is MEB-5 cells. The test can be described thus: haptotactic migration assay, MEB-5 cells. Type of test: cell-based, mouse. Particulars: 10 ng/ml coating, 200,000 cells. Here is the method:
as §1, §2, §3, §4

In test [5] the test system is hypoxic-ischemic injury. The test can be described thus: hypoxic-ischemic injury (HI) in adult rats, histological tissue damage score. The test is classed as in vivo, rat. As to conditions: five days after insult; for neuroprotection: ICV 2 hrs after hypoxia. As for the experimental part: To test the efficacy of NRPs in vivo studies were carried out in rats that had been exposed to hypoxic-ischemic injury (HI). Adult rats (50 days old, Wistar, 250-300 g, male) were used. The modified Levine model preparation and experimental procedures were used (Rice et al, 1981, Ann. Neurol. 9: 131-141; Guan et al J., 1993, Cereb. Blood Flow Metab.: 13(4): 609-16). These procedures in brief, consist of an HI injury induced by unilateral carotid artery ligation followed by inhalational asphyxia in the animals with an implanted lateral ventricular cannula. A guide cannula was stereotaxically placed on the top of the dura 1.5 mm to the right of the mid-line and 7.5 mm anterior to the interaural zero plane under halothane anaesthesia. The right carotid artery was double ligated two days after the cannulation. After a 1-hour recovery period from anaesthesia, each of the rats was placed in an incubator where the humidity (90±5%) and temperature ([…]) were controlled for another hour, and then each of the rats was exposed to hypoxia (6% oxygen) for 10 min. The animals were kept in the incubator for an additional 2 hours before treatment.
Rats were treated intracerebral ventricularly (icv) with 5 nM (n=12), 50 nM (n=12) or 500 nM of NRP-4 segment PQ (PGRAEAGGQ; SEQ ID NO:43) dissolved in saline, or vehicle (n=10) (normal saline) 2 hours after hypoxic-ischemic insult.
Histological examination was performed on rats 5 days after the hypoxic-ischemic injury. The rats were killed with an overdose of sodium pentobarbital and were perfused transcardially with normal saline followed by 10% formalin. The brains were kept in the same fixative for a minimum of 2 days before being processed using a standard paraffin imbedding procedure.
Coronal sections 8 μm in thickness were cut from the striatum, cerebral cortex and hippocampus and were stained with thionin and acid fuchsin. The severity of tissue damage was scored in the striatum, cortex and the CA1-2, CA3, CA4 and dentate gyrus of the hippocampus. […]

The subject of test [6] is cerebellar microexplants. As to the kind of experiment: cerebellar microexplants, oxidative stress by 0.1 mM hydrogen peroxide. Type of test: cell-based. Particulars: 48 hrs. As for the experimental part:
In this series of experiments, we studied whether NRP-4 Segment PQ (“NRP-4 PQ”) was able to protect cerebellar microexplanted cells from oxidative injury. We exposed cells to vehicle, 0.1 mM hydrogen peroxide or different concentrations of NRP-4 PQ in vehicle. […] Although the mechanism for this potentiation of neurite outgrowth is uncertain, it may relieve the stresses associated with creating or maintaining the microexplants themselves.

The test system of test [7] is cerebellar microexplants. The test can be described thus: cerebellar microexplant survival assay, 3-NP/glutamate injury. Type of test: cell-based, rat. As for the experimental part: Toxicological and drug administration experiments were designed such that 1/100 parts of toxin and neuroprotective drug were administered simultaneously to the freshly prepared cerebellar microexplants derived from P-4 or P8 rats. Glutamate was prepared as a 50 mM stock solution in MilliQ water while 50 mM 3-nitropropionic acid was pH-adjusted (pH 6.8-7.2) in MilliQ water. The concentrations of the oxidative stress inducing toxin, 3-nitropropionic acid (3-NP), and the excitotoxin, glutamate, in the assay were 0.5 mM each. Lyophilized peptides were reconstituted in PBS or 100 μg/ml human transferrin as a 10 μM stock solution. Subsequently, serial dilutions were made. Cerebellar microexplants were cultivated for 48-72 hours at 34° C., 5% CO2 in air and 100% humidity before they were fixed by increasing amounts of paraformaldehyde (0.4%, 1.2%, 3% and 4%—each treatment 2-3 min).
For statistical analysis of survival, four fields (each field having an area of 0.65 mm^2) of each fixed cerebellar culture with the highest cell densities were chosen, and cells displaying neurite outgrowth were counted. Statistical significance was measured by Student's t-test.
Laminated cerebellar cortex was extracted from P3/4, P7/8 rat pups and triturated through gauze having a 125 μm pore size to obtain uniformly sized microexplants. After centrifugation for 3 minutes at 61 g and the pellet was resuspended in StartV medium (Biochrom) and the suspension seeded on poly-D-lysine coated coverslips in 6-well plates and incubated for 3 hrs to allow adherence, before 1 ml StartV per well was added. As described previously, glutamate/3-NP and NRP were also added. The explants are cultivated at 34° C. at 5% CO2 and 100% humidity for 48-72 hrs. BrdU was administered at start of cultivation for proliferation rate measurements and cells are counted per microscopic field after 48-72 hrs.
Cerebellar Microexplants were prepared as described in Example 9 with the addition of SDF-1 as described, in addition to glutamate/3-NP, and NRP.
Cerebellar microexplants were prepared as described in Example 9 with the addition of SDF-1, Wortmannin and PD98059 (both Calbiochem), as described, in addition to glutamate/3-NP, and NRP.

The subject of test [8] is embryonic cerebellar microexplants. The test can be described thus: neural cell proliferation in embryonic cerebellar microexplants. The test is classed as cell-based. The source says: In another set of studies, we determined effects of NRP-5 RG on induction of neural cell proliferation in embryonic cerebellar microexplants as described herein.

Ends that are not written are not given here.

As to CGP-42112, the longest migration distances entry in test [1] is reported as “around 550 im”.
As to “GTPGRAEAGGQVSPCLAASCSQAYG-NH2 (cysteine pairing not given here) [NRP-4 GG, 25-mer fragment of NRP-4]”, the “more E14 cells migrated compared with BSA-vehicle” value in test [2] (10 ng/ml coating, 200,000 cells) stood at 93.7%. In test [3], the “more PC-12 cells migrated compared with BSA vehicle” value stood at 80.8%. The “more MEB-5 cells migrated compared with BSA-vehicle” value in test [4] turned out to be 195%.
As for “PGRAEAGGQ-NH2 [NRP-4 segment PQ, 9-mer of NRP-4]”, in test [5] (9 ng/20 μl icv 2 hrs after hypoxia), the “neuroprotection within all analysed brain regions” value is 100%. The “neuroprotection” value in test [5] was “substantial neuroprotection in all analysed brain regions”; in test [6], “even greater than that of control explants receiving no peroxide”.
“REGRRDAPGRAGG-NH2 [NRP-5 segment RG, 13-mer fragment of NRP-5]”: in test [5], the “neuroprotection” value is on record as “substantial neuroprotection in all analysed brain regions”. For the same substance, the “greater chemoattractive effect than control (BSA-containing) medium” value in test [2] is recorded as 42.1%. Besides, in test [7], the “higher neuroprotection than SEQ ID NO:46” value turned out to be 20% and the “times higher potency than SEQ ID NO:46” value was 10^6 to 10^7 times. In test [8], the “concentration of maximal proliferation-inducing activity” value is 100 pM.
